Where no end group is shown, it is not given here. [ ]: non-standard residue; d: D form.
Experiments:
[1] = Fluorescence spectroscopy of labelled peptides with cardiolipin; type: binding; conditions: 1 μM peptide; CL 5 to 50 μg/ml
Text: The peptides 2′,6′-Dmt-D-Arg-[…] (SS-19) and 2′,6′-Dmt-D-Arg-Phe-Lys-Ald-NH2 (SS-37) cationic peptides carry net positive charge at neutral pH. They are expected to associate with anionic phospholipid cardiolipin based on electrostatic interaction. The interaction of small peptides with lipid membranes can been studied using fluorescence spectroscopy (Surewicz and Epand, 1984). […] Polarity-sensitive fluorescent probes were incorporated into the peptides and fluorescence spectroscopy was used to determine if SS-19, SS-37 and SS-36 interact with CL.
The peptide 2′,6′-Dmt-D-Arg-Phe-(atn)Dap-NH2 (SS-19) contains anthraniloyl incorporated into diaminopropionic acid. Anthraniloyl derivatives fluoresce in the 410-420 nm range when excited at 320-330 nm (Hiratsuka T, 1983). The quantum yield of anthraniloyl derivatives is strongly dependent on the local environment, and can increase 5-fold going from water to 80% ethanol, together with a blue shift in the emission maxima (λ max) of <10 nm (Hiratsuka T, 1983). Fluorescence emission spectrum of SS-19 (1 μM) alone, and in the presence of increasing concentrations of CL (5 to 50 μg/ml), was monitored following excitation at 320 nm using Hitachi F-4500 fluorescence spectrophotometer.
The peptide 2′,6′-Dmt-D-Arg-Phe-Lys-Ald-NH2 (SS-37) contains an additional amino acid, aladan (Ald), which has been reported to be particularly sensitive to the polarity of its environment and it has been used to probe the electrostatic character of proteins (Cohen et al., 2002). When excited at 350 nm, λmax shifts from 542 nm in water to 409 nm in heptane, accompanied by a significant increase in quantal yield (Cohen et al., 2001). Fluorescence emission spectrum of SS-37 (1 μM) alone, and in the presence of increasing concentrations of CL, was monitored following excitation at 350 nm. Addition of CL (5 to 50 μg/ml) led to a 3-fold increase in quantal yield of SS-37 as well as a clear blue shift in λ max, from 525 nm without CL to 500 nm with 50 μg/ml CL (FIG. 11B).
The peptide 2′,6′-Dmt-D-Arg-Ald-Lys-NH2 (SS-36) contains Ald in place Phe^3 in SS-02. Fluorescence emission spectrum of SS-36 (1 μM) alone, and in the presence of increasing concentrations of CL, was monitored following excitation at 350 nm. SS-36 was the most sensitive to the addition of CL, with dramatic increase in quantal yield and blue shift observed with much lower added amounts of CL (1.25 to 5 μg/ml). The λmax shifted from 525 nm without CL to 500 nm with as little as 1.25 μg/ml CL, and quantal yield increased by more than 100-fold with the addition of 5 μg/ml of CL (FIG. 11C). […] Accordingly, aromatic-cationic peptides of the present disclosure are useful for the prevention or treatment of diseases or disorders characterized by dysregulation of cardiolipin.
Changes in the emission intensity of the [atn]SS-02 and the [ald]SS-02 were measured using a Hitachi F-4500 fluorescence spectrophotometer. The different solvents used to dissolve the various phospholipids (chloroform, methanol and ethanol) had negligible effect on the fluorescence spectrum of [atn]SS-02 and [ald]SS-02. All experiments were done in low ionic solution (deionized water) to optimize electrostatic interactions of peptides with phospholipids.
Increasing concentrations of cardiolipin (5, 10, 25, and 50 μg/mL) were added to 1 μM [atn]SS-02, and the emission intensity between 350 nm and 500 nm was measured.

[2] = target: T1, cytochrome c and cardiolipin (CL) (Equus caballus, UniProt P00004); experiment: Fluorescence quenching by cytochrome c in the presence of cardiolipin; type: binding, horse; conditions: CL 50 μg/ml
T1 construct: from tissue; host or cells: horse heart
T1 sequence (P00004 2-105 limits assumed): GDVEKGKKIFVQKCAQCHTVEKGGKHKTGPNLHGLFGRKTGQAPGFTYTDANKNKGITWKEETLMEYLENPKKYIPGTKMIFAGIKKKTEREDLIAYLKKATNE
Description: Fluorescence emission of SS-19 (10 μM) was monitored in real time (Ex/Em=320 nm/420 nm) using Hitachi F-4500 fluorescence spectrophotometer. […] CL may potentiate the interaction between SS-19 and cytochrome c by serving as an anionic platform for the two cationic molecules.
The quenching by cytochrome c was not displaced by sequential additions of bovine serum albumin (500 μg/ml) (FIG. 13C, A+arrows).
SS-36 also contains the polarity-sensitive fluorescent amino acid aladan. […] Accordingly, aromatic-cationic peptides of the present disclosure are useful for the prevention or treatment of diseases or disorders characterized by dysregulation of cardiolipin and/or cytochrome c, and/or diseases or disorders characterized by dysregulation of the cardiolipin/cytochrome c interaction.
Interaction of SS peptides with horse heart cytochrome c in the absence or presence of free cardiolipin or cardiolipin/POPC (1:1) liposomes (prepared as described in Example 22) was examined by fluorescence quenching of [atn]SS-02 (λex/λem=320/420 nm) and [ald]SS-02 (λex/λem=360/510 nm) upon addition of cytochrome c (using a Hitachi F-4500 fluorescence spectrophotometer). The solvents used to dissolve cardiolipin and POPC had negligible effect on cytochrome c-dependent quenching of these peptides. All experiments were done in low ionic solution (deionized water) or 20 mM Hepes pH 7.4.

[3] = target: cytochrome c/cardiolipin complex (Equus caballus, UniProt P00004); experiment: Soret circular dichroism of cytochrome c with cardiolipin; type: biochemical; conditions: 10 μM cytochrome c, 30 μg/ml CL, 10 μM peptide; 20 mM HEPES pH 7.5, 25° C.
Sequence of cytochrome c/cardiolipin complex (P00004 2-105 limits assumed, one chain of several): as the sequence (P00004 2-105 limits assumed) above
Description: Circular dichroism (CD) was carried out to examine the effects of the peptides on protecting the heme environment of cytochrome c from the acyl chain of CL. For heme proteins, the Soret CD spectrum is strictly correlated with the heme pocket conformation. In particular, the negative 416-420 nm Cotton effect is considered diagnostic of Fe(III)-Met80 coordination in native cytochrome c (Santucci and Ascoli, 1997). […] CD spectra were obtained using AVIV CD Spectrometer Model 410.
Changes in the Soret CD spectrum of cytochrome c (10 μM) were recorded in the absence (dotted line) and presence (dashed line) of 30 μg/ml CL, plus addition of different peptides (10 μM) (solid line) (FIG. 14). CD measurements were carried out using 20 mM HEPES, pH 7.5, at 25° C. and expressed as molar ellipticity (A) (m Deg). […] Accordingly, aromatic-cationic peptides of the present disclosure are useful for the prevention or treatment of diseases or disorders characterized by dysregulation of cardiolipin and/or cytochrome c, and/or diseases or disorders characterized by dysregulation of the cardiolipin/cytochrome c interaction. In addition, aromatic-cationic peptides of the present disclosure are useful to protect the heme environment of cytochrome c from the acyl chain of cardiolipin.
Circular Dichroism (CD) spectra were collected with an AVIA 62 DS spectrophotometer equipped with a sample temperature controller. CD spectra of the Soret region (370-450 nm) were recorded with 10-mm path length cells containing 20 mM Hepes, pH 7.4, and 10 μM cytochrome c, in the presence or absence of 30 μg/ml cardiolipin and different SS peptide analogs (SS-02, [atn]SS-02, [ald]SS-02, and SS-31). The maximum lipid concentration was kept low to avoid spectral distortions due to excessive light scattering. All measurements were done at 25° C. All spectra were corrected for background, and the final spectrum shown represents the average of at least three experiments.

[4] = target: cardiolipin-cytochrome c complex (Equus caballus, UniProt P00004); experiment: Cytochrome c reduction in the presence of cardiolipin; type: biochemical; conditions: 500 μM GSH
Sequence of cardiolipin-cytochrome c complex (P00004 2-105 limits assumed, one chain of several): as the sequence (P00004 2-105 limits assumed) above
Description: Reduction of cytochrome c (20 μM) was induced by the addition of glutathione (500 μM) in the absence or presence of CL (100 μg/ml) (FIG. 15A). Reduction of cytochrome c was monitored by absorbance at 550 nm using a 96-well UV-VIS plate reader (Molecular Devices). Addition of CL decreased the rate of cytochrome c reduction by half.
The time course of cytochrome c reduction by ascorbate was recorded at 550 nm and 570 nm using a 96-well plate reader (Molecular Devices, Sunnyvale, Calif.). For all reactions, cytochrome c was preincubated with cardiolipin in the presence or absence of SS peptides for 1 min. […] Ascorbate (50 μM) was added to initiate the reduction of cytochrome c, and the absorbance was recorded for 5 min. The rate of reduction was calculated based on slope of the change in absorbance intensity of 550 nm over 570 nm.

[5] = tested on: isolated rat kidney mitochondria; experiment: O2 consumption in isolated mitochondria; type: biochemical; conditions: 400 μM ADP
Description: (§1) Fresh mitochondria were isolated from rat kidney as described previously. Electron flux was measured by O2 consumption (Oxygraph Clark electrode) as previously described using different substrates for C1 (glutamate/malate), C2 (succinate), and C3 (TMPD/ascorbate). Assays were carried out under low substrate conditions in order to avoid saturating the enzyme reactions. ATP production in isolated mitochondria was determined kinetically using the luciferase method (Biotherma) in a 96-well luminescence plate reader (Molecular Devices). The initial maximal rate for ATP synthesis was determined over the first minute.
Oxygen consumption of isolated rat kidney mitochondria was determined using the Oxygraph (FIG. 5). Rates of respiration were measured in the presence of different concentrations of SS-31 in state 2 (400 μM ADP only), state 3 (400 μM ADP and 500 μM substrates) and state 4 (substrates only). All experiments were done in triplicate with n=4−7. […] Accordingly, aromatic-cationic peptides of the present disclosure are useful for promoting electron transfer to oxygen without uncoupling mitochondria, increasing O2 consumption, and treating diseases or conditions related to dysregulation of O2 consumption in mitochondria.
(§2) SS-20 or SS-31 was added at 100 μM concentrations to isolated mitochondria in respiration buffer containing 0.5 mM succinate (complex II substrate) and 400 μM ADP. Similar increases in O2 consumption were observed when low concentrations of complex I substrates (glutamate/malate) were used (data not shown). […] Accordingly, targeting SS-20 and SS-31 to the IMM can facilitate electron flux in the electron transport chain and improve ATP synthesis, especially under conditions of reduced substrate supply.
SS-20 or SS-31 was added at 10 μM or 100 μM concentrations to isolated mitochondria in respiration buffer containing glutamate/malate (complex I substrate), 0.5 mM succinate (complex II substrate) or 3 μM TMPD/1 mM ascorbate (direct reductant of cytochrome c). 400 μM ADP was added to initiate State 3 respiration.

cytochrome c = cytochrome c (Equus caballus, UniProt P00004); experiment: Cytochrome c reduction kinetics (absorption spectroscopy); type: biochemical; conditions: glutathione (GSH) as reducing agent; absorbance at 550 nm
Sequence of cytochrome c (P00004 2-105 limits assumed): as above
Description: Increasing amounts of aromatic-cationic peptides were added to a solution of oxidized cytochrome c. The formation of reduced cytochrome c was monitored by absorbance at […]. The rate of cytochrome c reduction was determined by non-linear analysis (Prizm software).
Time-resolved UV-Visible absorption spectroscopy was used to study the electron transport process of cytochrome c in the presence of peptides. Reduced cytochrome c was monitored by absorbance at a broad-band spectral range (200-1100 nm). The absorption changes were recorded with a UV/Visible spectrophotometer (Ultrospec 3300 pro, GE) in quartz cells with path lengths of 1 or 2 mm. N-acetylcysteine (NAC) and glutathione were used as electron donors to reduce oxidized cytochrome c. The rate constant of cytochrome c reduction was estimated by adding various concentrations of peptides. The dose dependence of the peptides was correlated to the cytochrome c reduction kinetics.
Absorption spectroscopy (UltroSpec 3300 Pro; 220-1100 nm) was used to determine if SS-31 modulates cytochrome c reduction (FIG. 1). Reduction of cytochrome c with glutathione is associated with multiple shifts in the Q band (450-650 nm), with a prominent shift at 550 nm. […] Accordingly, the aromatic-cationic peptides of the present disclosure are useful for altering the structure and oxidation state of cytochrome c, and are useful for the prevention or treatment of diseases or disorders characterized by dysregulation of cytochrome c.
Reduction of cytochrome c was monitored by increase in absorbance at 550 nm. […] Similar results were obtained using N-acetylcysteine (NAC) as a reducing agent (not shown). […] Accordingly, aromatic-cationic peptides of the present disclosure are useful for the prevention or treatment of diseases or disorders characterized by dysregulation of cytochrome c and are useful for facilitating cytochrome c reduction.

isolated mitochondria = experiment: ATP synthesis in isolated mitochondria; type: biochemical, rat; conditions: mitochondria energized with low concentrations of succinate
Description: as §1
The rate of mitochondrial ATP synthesis was determined by measuring ATP in respiration buffer collected from isolated mitochondria 1 min after addition of […] (FIG. 6). ATP was assayed by HPLC. All experiments were carried out in triplicate, with n=3. […] Accordingly, aromatic-cationic peptides of the present disclosure are useful for increasing ATP synthesis in mitochondria and for treating diseases or disorder characterized by dysregulation of ATP synthesis.
as §2
Increase in electron flux in the electron transport chain can either result in increase in ATP synthesis or increase in electron leak and generation of free radicals. ATP synthesis in isolated mitochondria was assayed by HPLC. […] Accordingly, aromatic-cationic peptides of the present disclosure are useful for increasing ATP synthesis in mitochondria and for treating diseases or disorder characterized by dysregulation of ATP synthesis.

Substance | increase in quantal yield on addition of CL [1] | quenching of fluorescence by cytochrome c in the presence of CL ([2]; 10 μM peptide, 2 μM cytochrome c) | displacement of quenching by bovine serum albumin in the presence of CL ([2]; BSA 500 μg/ml) | protection against CL-induced disappearance of negative Cotton effect [3] | CL inhibition of cytochrome c reduction [4] | O2 consumption in state 3 respiration ([5]; 10 μM or 100 μM peptide, complex I or complex II substrates or TMPD/ascorbate) | electron flux measured by O2 consumption ([5]; 100 μM peptide, 0.5 mM succinate) | rate (kinetics) of cytochrome c reduction (cytochrome c) | rate of ATP production (isolated mitochondria)
2′,6′-Dmt-D-Arg-Phe-Lys-Ald-NH2 [SS-37] | 3 fold | similarly quenched | not displaced |  |  |  |  |  | 
D-Arg-Tyr-Lys-Phe-NH2 ([dR]YKF-NH2; N-terminus assumed; SMILES N=C(N)NCCC[C@@H](N)C(=O)N[C@@H](Cc1ccc(O)cc1)C(=O)N[C@@H](CCCCN)C(=O)N[C@@H](Cc1ccccc1)C(N)=O) [SPI-231] |  |  |  | Protect the Heme Environment of Cytochrome c from the Acyl Chain of CL | prevented CL inhibition of cytochrome c reduction |  |  |  | 
F[dR]FK-NH2 [SS-20] |  |  |  | Protect the Heme Environment of Cytochrome c from the Acyl Chain of CL | prevented CL inhibition of cytochrome c reduction | increases O2 consumption in state 3 respiration | promote electron flux | accelerate the kinetics of cytochrome c reduction | significant increase in the rate of ATP production
